From patent US20250154173A1 (Merck Sharp & Dohme LLC, priority 2023, published 2025)

Molecular target: T1, GST-RIPK1 (recombinant GST-RIPK1 kinase domain (residues 1-327)) (Homo sapiens, UniProt Q13546)
T1 construct: recombinant GST-RIPK1 kinase domain (residues 1-327) enzyme produced from baculovirus-transfected Sf21 cells; host or cells: baculovirus-transfected Sf21 insect cells
T1 sequence (Q13546 1-327): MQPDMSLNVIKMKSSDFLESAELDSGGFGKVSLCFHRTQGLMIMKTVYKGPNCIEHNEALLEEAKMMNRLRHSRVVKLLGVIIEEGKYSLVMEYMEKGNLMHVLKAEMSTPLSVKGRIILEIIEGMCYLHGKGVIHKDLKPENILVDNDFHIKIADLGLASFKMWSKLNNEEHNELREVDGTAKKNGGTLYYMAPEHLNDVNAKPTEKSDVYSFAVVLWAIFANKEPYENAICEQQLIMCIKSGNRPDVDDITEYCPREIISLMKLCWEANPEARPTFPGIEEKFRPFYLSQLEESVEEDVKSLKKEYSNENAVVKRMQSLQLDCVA
Test: RIPK1-ADP-Glo Enzymatic Assay
Assay type: biochemical
Details: ten-point titration, top compound concentration of 100000 nM; 25 nM GST-RIPK1, 300 μM ATP, 3 μM dephosphorylated-MBP; 30 min pre-incubation, 150 min reaction
Outline: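 GST-RIPK1 kinase domain (residues 1-327, Sf21-expressed), 25 nM, preincubated 30 min with compound, then reacted 150 min with 300 μM ATP and 3 μM dephosphorylated MBP in pH 7.3 Hepes buffer, 1% DMSO. ADP measured by ADP-Glo luminescence; EC50 from ten-point titration (top 100000 nM), four-parameter fit.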

Q: With `O=C1N2C(CC[C@H]2c2cnccn2)OC12CC(OCc1cccc(N3CCCC3)n1)C2` (stereo partly drawn) [Example 18.96, (5′S)-5′-(pyrazin-2-yl)-3-{[6-(pyrrolidin-1-yl)pyridin-2-yl]methoxy}tetrahydro-3′H-spiro[cyclobutane-1,2′-pyrrolo[2,1-b][1,3]oxazol]-3′-one] as the molecule, how does the EC50 read?
A: The EC50 was 225 nM.

Q: For `O=C1N2C(CC[C@H]2c2cnccn2)OC12CC(OCc1ccc3nc(C(F)(F)F)sc3c1)C2` (stereo partly drawn) [Example 18.97, (5′S)-5′-(pyrazin-2-yl)-3-{[2-(trifluoromethyl)-1,3-benzothiazol-6-yl]methoxy}tetrahydro-3′H-spiro[cyclobutane-1,2′-pyrrolo[2,1-b][1,3]oxazol]-3′-one], which EC50 is on record?
A: Its EC50 is 289 nM.

Q: With `N#CCc1ncc(COC2CC3(C2)OC2CC[C@@H](c4cnccn4)N2C3=O)cc1Cl` (stereo partly drawn) [Example 18.98, [3-chloro-5-({[(5′S)-3′-oxo-5′-(pyrazin-2-yl)tetrahydro-3′H-spiro[cyclobutane-1,2′-pyrrolo[2,1-b][1,3]oxazol]-3-yl]oxy}methyl)pyridin-2-yl]acetonitrile] as the molecule, how does the EC50 read?
A: The EC50 was 198 nM.

Q: Which EC50 does the source give for `COCCOc1ccc(COC2CC3(C2)OC2CC[C@@H](c4cnccn4)N2C3=O)cc1` (stereo partly drawn) [Example 18.99, (5′S)-3-{[4-(2-methoxyethoxy)phenyl]methoxy}-5′-(pyrazin-2-yl)tetrahydro-3′H-spiro[cyclobutane-1,2′-pyrrolo[2,1-b][1,3]oxazol]-3′-one] here?
A: The EC50 was 205 nM.

Q: How did the EC50 turn out when `N#Cc1cccc(F)c1COC1CC2(C1)OC1CC[C@@H](c3cnccn3)N1C2=O` (stereo partly drawn) [Example 18.100, 3-fluoro-2-({[(5′S)-3′-oxo-5′-(pyrazin-2-yl)tetrahydro-3′H-spiro[cyclobutane-1,2′-pyrrolo[2,1-b][1,3]oxazol]-3-yl]oxy}methyl)benzonitrile] was run?
A: The EC50 was 472 nM.

Q: `O=C1N2C(CC[C@H]2c2cnccn2)OC12CC(OCc1cnn(-c3ccncc3)c1)C2` (stereo partly shown) [Example 18.101] was tested. Which EC50 did it give?
A: The EC50 was 367 nM.

Q: Which EC50 does the source give for `O=C1N2C(CC[C@H]2c2cnccn2)OC12CC(OCc1ccccc1-n1cccn1)C2` (stereo partly drawn) [Example 18.102, (5′S)-5′-(pyrazin-2-yl)-3-{[2-(1H-pyrazol-1-yl)phenyl]methoxy}tetrahydro-3′H-spiro[cyclobutane-1,2′-pyrrolo[2,1-b][1,3]oxazol]-3′-one] here?
A: Its EC50 is 736 nM.

Q: With `O=C1N2C(CC[C@H]2c2cnccn2)OC12CC(OCc1ccc3nc(C(F)(F)F)cn3c1)C2` (stereo partly shown) [Example 18.103] as the molecule, how does the EC50 read?
A: The EC50 was 607 nM.

Q: Which EC50 does the source give for `N#Cc1ccoc1COC1CC2(C1)OC1CC[C@@H](c3cnccn3)N1C2=O` (stereo partly drawn) [Example 18.104, 2-({[(5′S)-3′-oxo-5′-(pyrazin-2-yl)tetrahydro-3′H-spiro[cyclobutane-1,2′-pyrrolo[2,1-b][1,3]oxazol]-3-yl]oxy}methyl)furan-3-carbonitrile] here?
A: The EC50 was 355 nM.

Q: With `CCc1nnc(-c2ccc(COC3CC4(C3)OC3CC[C@@H](c5cnccn5)N3C4=O)cc2)o1` (stereo partly drawn) [Example 18.105, (5′S)-3-{[4-(5-ethyl-1,3,4-oxadiazol-2-yl)phenyl]methoxy}-5′-(pyrazin-2-yl)tetrahydro-3′H-spiro[cyclobutane-1,2′-pyrrolo[2,1-b][1,3]oxazol]-3′-one] as the molecule, how does the EC50 read?
A: Its EC50 is 66 nM.

Q: `O=C1N2C(CC[C@H]2c2cnccn2)OC12CC(OCc1ccc(OC3CCOCC3)nc1)C2` (stereo partly drawn) [Example 18.106, (5′S)-3-({6-[(oxan-4-yl)oxy]pyridin-3-yl}methoxy)-5′-(pyrazin-2-yl)tetrahydro-3′H-spiro[cyclobutane-1,2′-pyrrolo[2,1-b][1,3]oxazol]-3′-one] was tested. Which EC50 did it give?
A: The EC50 was 569 nM.

Q: With `O=C1N2C(CC[C@H]2c2cnccn2)OC12CC(OCc1cc3cncnc3s1)C2` (stereo partly drawn) [Example 18.107, (5′S)-5′-(pyrazin-2-yl)-3-(thieno[2,3-d]pyrimidin-6-ylmethoxy)tetrahydro-3′H-spiro[cyclobutane-1,2′-pyrrolo[2,1-b]oxazol]-3′-one] as the molecule, how does the EC50 read?
A: Its EC50 is 34 nM.

Q: With `O=C1N2C(CC[C@H]2c2cnccn2)OC12CC(OCc1ccc3c(c1)CCO3)C2` (stereo partly drawn) [Example 18.108, (5′S)-3-((2,3-dihydrobenzofuran-5-yl)methoxy)-5′-(pyrazin-2-yl)tetrahydro-3′H-spiro[cyclobutane-1,2′-pyrrolo[2,1-b]oxazol]-3′-one] as the molecule, how does the EC50 read?
A: Its EC50 is 94 nM.

Q: For `N#Cc1cccc(COC2CC3(C2)O[C@@H]2CC[C@@H](c4cnccn4)N2C3=O)c1` (stereo partly drawn) [Example 18.109, 3-((((5′S,7a′R)-3′-oxo-5′-(pyrazin-2-yl)tetrahydro-3′H-spiro[cyclobutane-1,2′-pyrrolo[2,1-b]oxazol]-3-yl)oxy)methyl)benzonitrile], which EC50 is on record?
A: The EC50 was 25 nM.

Q: `O=C1N2[C@@H](CC[C@H]2c2cnccn2)OC12CC(OCc1ccc3cnoc3c1)C2` (stereo partly drawn) [Example 18.110, (5′S,7a′R)-3-(benzo[d]isoxazol-6-ylmethoxy)-5′-(pyrazin-2-yl)tetrahydro-3′H-spiro[cyclobutane-1,2′-pyrrolo [2,1-b]oxazol]-3′-one] was tested. Which EC50 did it give?
A: The EC50 was 44 nM.

Q: `O=C1N2[C@@H](CC[C@H]2c2cnccn2)O[C@]12C[C@@H](Oc1cccnc1)C2` [Example 19.1, (5′S,7a′R)-5′-(pyrazin-2-yl)-3-(pyridin-3-yloxy)tetrahydro-3′H-spiro[cyclobutane-1,2′-pyrrolo[2,1-b]oxazol]-3′-one] was tested. Which EC50 did it give?
A: Its EC50 is 31 nM.

Q: With `N#Cc1cccc(OC2CC3(C2)O[C@@H]2CC[C@@H](c4cnccn4)N2C3=O)c1` (stereo partly drawn) [Example 19.3, 3-{[(5′S,7a′R)-3′-oxo-5′-(pyrazin-2-yl)tetrahydro-3′H-spiro[cyclobutane-1,2′-pyrrolo[2,1-b][1,3]oxazol]-3-yl]oxy}benzonitrile] as the molecule, how does the EC50 read?
A: The EC50 was 20 nM.

Q: How did the EC50 turn out when `N#Cc1cc(F)cc(OC2CC3(C2)O[C@@H]2CC[C@@H](c4cnccn4)N2C3=O)c1` (stereo partly drawn) [Example 19.4, 3-fluoro-5-{[(5′S,7a′R)-3′-oxo-5′-(pyrazin-2-yl)tetrahydro-3′H-spiro[cyclobutane-1,2′-pyrrolo[2,1-b][1,3]oxazol]-3-yl]oxy}benzonitrile] was run?
A: The EC50 was 33 nM.

Q: `O=C1N2[C@@H](CC[C@H]2c2cnccn2)OC12CC(Oc1ccc(F)c(F)c1)C2` (stereo partly drawn) [Example 19.5, (5′S,7a′R)-3-(3,4-difluorophenoxy)-5′-(pyrazin-2-yl)tetrahydro-3′H-spiro[cyclobutane-1,2′-pyrrolo[2,1-b][1,3]oxazol]-3′-one] was tested. Which EC50 did it give?
A: Its EC50 is 11 nM.

Q: Which EC50 does the source give for `Cn1ccc([C@@H]2CC[C@H]3O[C@]4(C[C@@H](Oc5cccc(C#N)c5)C4)C(=O)N32)n1` [Example 19.6, 3-{[(1s,3S,5′S,7a′R)-5′-(1-methyl-1H-pyrazol-3-yl)-3′-oxotetrahydro-3′H-spiro[cyclobutane-1,2′-pyrrolo[2,1-b][1,3]oxazol]-3-yl]oxy}benzonitrile] here?
A: Its EC50 is 203 nM.

Q: `Cc1ccc(OC2CC3(C2)O[C@@H]2CC[C@@H](c4ccn(C)n4)N2C3=O)cn1` (stereo partly drawn) [Example 19.7, (5′S,7a′R)-5′-(1-methyl-1H-pyrazol-3-yl)-3-[(6-methylpyridin-3-yl)oxy]tetrahydro-3′H-spiro[cyclobutane-1,2′-pyrrolo[2,1-b][1,3]oxazol]-3′-one] was tested. Which EC50 did it give?
A: The EC50 was 531 nM.

Q: How did the EC50 turn out when `Cn1ccc([C@@H]2CC[C@H]3OC4(CC(Oc5cccnc5)C4)C(=O)N32)n1` (stereo partly drawn) [Example 19.8, (5′S,7a′R)-5′-(1-methyl-1H-pyrazol-3-yl)-3-[(pyridin-3-yl)oxy]tetrahydro-3′H-spiro[cyclobutane-1,2′-pyrrolo[2,1-b][1,3]oxazol]-3′-one] was run?
A: The EC50 was 474 nM.

Q: `Cn1ccc([C@@H]2CC[C@H]3OC4(CC(Oc5cncc(Cl)c5)C4)C(=O)N32)n1` (stereo partly drawn) [Example 19.9, (5′S,7a′R)-3-[(5-chloropyridin-3-yl)oxy]-5′-(1-methyl-1H-pyrazol-3-yl)tetrahydro-3′H-spiro[cyclobutane-1,2′-pyrrolo[2,1-b][1,3]oxazol]-3′-one] was tested. Which EC50 did it give?
A: The EC50 was 397 nM.

Q: `Cn1ccc([C@@H]2CC[C@H]3OC4(CC(Oc5cccc(-c6ccnn6C)c5)C4)C(=O)N32)n1` (stereo partly drawn) [Example 19.10, (5′S,7a′R)-5′-(1-methyl-1H-pyrazol-3-yl)-3-[3-(1-methyl-1H-pyrazol-5-yl)phenoxy]tetrahydro-3′H-spiro[cyclobutane-1,2′-pyrrolo[2,1-b][1,3]oxazol]-3′-one] was tested. Which EC50 did it give?
A: Its EC50 is 30 nM.

Q: Which EC50 does the source give for `Cn1ccc([C@@H]2CC[C@H]3OC4(CC(Oc5cccnc5)C4)C(=O)N32)n1` (stereo partly drawn) [Example 19.11, (5′S,7a′R)-5′-(1-methyl-1H-pyrazol-3-yl)-3-[(pyridin-3-yl)oxy]tetrahydro-3′H-spiro[cyclobutane-1,2′-pyrrolo[2,1-b][1,3]oxazol]-3′-one] here?
A: The EC50 was 209 nM.

Q: How did the EC50 turn out when `Cc1ccc(OC2CC3(C2)O[C@@H]2CC[C@@H](c4ccn(C)n4)N2C3=O)cn1` (stereo partly drawn) [Example 19.12, (5′S,7a′R)-5′-(1-methyl-1H-pyrazol-3-yl)-3-[(6-methylpyridin-3-yl)oxy]tetrahydro-3′H-spiro[cyclobutane-1,2′-pyrrolo[2,1-b][1,3]oxazol]-3′-one] was run?
A: The EC50 was 790 nM.

Q: `Cn1nccc1-c1cccc(OC2CC3(C2)O[C@@H]2CC[C@@H](c4cnccn4)N2C3=O)c1` (stereo partly drawn) [Example 19.13, (5′S,7a′R)-3-[3-(1-methyl-1H-pyrazol-5-yl)phenoxy]-5′-(pyrazin-2-yl)tetrahydro-3′H-spiro[cyclobutane-1,2′-pyrrolo[2,1-b][1,3]oxazol]-3′-one] was tested. Which EC50 did it give?
A: Its EC50 is 15 nM.

Q: For `Cn1nccc1-c1cccc(OC2CC3(C2)O[C@@H]2CC[C@@H](c4cnccn4)N2C3=O)c1` (stereo partly drawn) [Example 19.14, (5′S,7a′R)-3-[3-(1-methyl-1H-pyrazol-5-yl)phenoxy]-5′-(pyrazin-2-yl)tetrahydro-3′H-spiro[cyclobutane-1,2′-pyrrolo[2,1-b][1,3]oxazol]-3′-one], which EC50 is on record?
A: Its EC50 is 16 nM.
